In patent publication US6838237B2, “Antigenically reactive regions of the hepatitis a virus polyprotein” (The United States of America as represented by the …, priority 1996, dated 2005):

Assays:
anti-HAV-positive sera = test: EIA for anti-HAV: synthetic peptides adsorbed to wells, reacted with anti-HAV-positive acute sera; assay type: binding, human; details: for Reactivity with acute sera (reactive/tested): experiment 1: sera 1:100, anti-human IgG-HRP, cutoff P/N 3.0; for Reactivity with acute sera (percent of sera reactive): experiment 1: sera 1:100, cutoff P/N 3.0; for P/N for acute sera (mean) / P/N for acute sera (range, in parentheses): experiment 1, OD493 positive/negative ratio of reactive sera
Excerpt: (§1) All anti-HAV-positive and anti-HAV-negative sera were randomly selected from a collection reposited at the Centers for Disease Control and Prevention, Atlanta, Ga. Serum specimens were collected from anti-HAV-positive patients with acute liver disease. Anti-HAV-negative serum specimens were collected from normal blood donors. All sera were initially tested by commercially available kit for the presence of anti-HAV activity (HAVAB and HAVAB-M, Abbott Laboratories, Abbott Park, Ill.)
(§2) Synthetic peptides (110 ml) at a concentration of 10 mg/ml in 0.1 M phosphate-buffered saline (PBS), pH 7.5, were adsorbed to microtiter wells (Immulon II, Dynatech Laboratories, Inc.) at room temperature for 12 h. Sera were diluted in PBS containing 0.1% Tween 20 and 10% normal goat serum (PBS-T) and 100 ml were added to each well, incubated for 60 min at 37E C, and washed with PBS containing Tween-20. […] Two different cutoffs were established for experiments 1 and 2. In experiment 1, the cutoff, expressed as a P/N ratio and equal to 3.0, was statistically established as the mean of negative controls plus at least 3.5 standard deviations (SD) above the mean, where P represents the optical density value at 493 nm (OD493) of anti-HAV-positive specimens and N represents the optical density value of negative controls. In experiment 2, a different cutoff was used to ensure statistical reliability and accurate interpretation of positive results. In this case, in addition to anti-HAV-negative sera, two irrelevant synthetic peptides were used as supplemental negative controls to determine the degree of nonspecific binding of anti-HAV sera to synthetic peptides. One cutoff, expressed as a P/N ratio and equal to 3.0, corresponded to the mean of negative serum controls plus at least 3.5 SD above the mean. A second cutoff was also expressed as a P/N ratio, where P represents the optical density value at 493 nm (OD493) for HAV peptides immunoreacting with anti-HAV-positive specimens and N represents the optical density value obtained with the irrelevant peptides. The second cutoff was equal 2.0 and corresponded to the mean of OD values obtained with the irrelevant peptides plus at least 3.5 SD above the mean. Synthetic peptides were considered immunoreactive with anti-HAV serum specimens only when both cutoffs were satisfied.

anti-HAV-negative sera = test: EIA for anti-HAV: synthetic peptides reacted with anti-HAV-negative sera; assay type: binding, human; details: experiment 1: sera 1:100, cutoff P/N 3.0
Excerpt: as §1, §2

Sequence	immunoreactivity with anti-HAV-positive sera (in words) (anti-HAV-positive sera)	Reactivity with acute sera (reactive/tested) (anti-HAV-positive sera)	Reactivity with acute sera (percent of sera reactive) (anti-HAV-positive sera)	P/N for acute sera (mean) (anti-HAV-positive sera)	Reactivity with negative sera (reactive/tested) (anti-HAV-negative sera)	P/N for acute sera (range, in parentheses) (anti-HAV-positive sera)	percent of (IgM) anti-HAV-positive sera immunoreactive with peptide (anti-HAV-positive sera)
FNASDSVGQQIKVIPVDPYF [YK-1242]	Very weakly reactive	1/41	2.4%	3.1	0/46		
SDPSQGGGIKITHFTTWTSI [YK-1235]		11/46	23.9%	4.2	0/48	(3.0-4.95)	
HGVTKPKQVIKLDADPVESQ [YK-1374]	very broad and strong antigenic reactivity	18/41	43.9%	10.57	0/27	(3.28-29.07)	
IKVIPVDPYFFQMTNTNPDQ [YK-1244]		6/41	14.6%	4.2	0/46	(3.55-5.2)	
AKKVPETFPELKPGESRHTS [YK-1273]	broad and strong antigenic reactivity	19/46	41.3%	5.15	3/48	(3.15-8.58)	
EPLRTSVDKPGSKKTQGEKF [YK-1211]		21/46	45.7%	9.33	0/48	(3.37-27.92)	
VIQQLNQDEHSHIIGLLRVM [YK-1334]	marginally immunoreactive	5/48	10.4%	4.27	2/51	(3.16-5.27)	
QNVPDPQVGITTMKDLKGKA [YK-1266]		14/46	30.4%	8.25	0/48	(3.27-18.30)	
GQKIVDEFKKLGMTATSADK [YK-1428]		1/41	2.4%	7.28	0/27		
INNVNLYYVFSKIFGKSPVF [YK-1424]		3/41	7.3%	6.69	0/27	(3.48-10.83)	
CPKDELRPLEKVLESKTRAI [YK-1411]		8/41	19.5%	8.18	0/27	(4.65-17.65)	
WLNPKKINLADRMLGLSGVQEIKEQ [YK-1757]	very strong antigenically reactive						
DVVLMKVPTIPKFRDITQHF [YK-1382]		1/41	2.4%	8.4	0/27		
LGSINQAMVTRCEPVVCYLY [YK-1347]		13/48	27.1%	4.16	2/51	(3.18-6.2)	27.1%
AGDLESSVDDPRSEEDKRFE [YK-1313]	broad and strong antigenic reactivity	18/48	37.5%	15.79	3/51	(3.0-108.06)	
